EP0726261A1, “Herbidical 1,2,4 thiadiazoles” (American Cyanamid Company, priority 1995, dated 1996)

How the values were obtained:
Format in all cases: in vivo
Triticum aestivum [1] = assay: Preemergence herbicidal activity (Example 67); conditions: pre, 800 g/ha
Procedure: (§1) Herbicidal evaluation of compounds of the invention is conducted on the following plant species:
(§2) The soil is a prepared horticultural substrate containing 30% peat, 20% volcanic clay, 30% bark residues and 20% polyamide/styromull in a 1:3 mixture with loamy sand. Test solutions are prepared by dissolving the test compound in acetone containing 0.5% of an alkylphenol/ethylene oxide condensate under the trademark, TRITON® X-155, and diluting with water as needed. The test solutions are applied as a spray to the 3-6 week old seedling plants at dose rates corresponding to 800g/ha in a volume equivalent to 400 L/ha. A pneumatic spraying device employing a Teejet nozzle SS 8002E operating at 3 bar is used for a predetermined time. After spraying, the treated plants are placed on greenhouse benches and cared for in a manner commensurate with conventional greenhouse practice. After 10-21 days, the treated plants are evaluated and rated according to the rating system provided below.
(§3) The soil surface is then sprayed with test solutions as described in the postemergence evaluation hereinabove. After spraying, the treated cups are placed on greenhouse benches and cared for in the manner commensurate with conventional greenhouse practice. About 1-3 weeks after treatment the cups are evaluated and rated according to the rating system provided hereinabove.

Hordeum vulgare [2] = assay: Preemergence herbicidal activity (Example 67); conditions: pre, 800 g/ha
Procedure: as §1, §2, §3

Galium aparine [3] = assay: Postemergence herbicidal activity (Example 67); conditions: pos, 800 g/ha
Procedure: as §1, §2

Zea mays [4] = assay: Postemergence herbicidal activity (Example 67); conditions: pos, 800 g/ha
Procedure: as §1, §2

Ipomoea hederacea [5] = assay: Postemergence herbicidal activity (Example 67); conditions: pos, 800 g/ha
Procedure: as §1, §2

Amaranthus retroflexus [6] = assay: Postemergence herbicidal activity (Example 67); conditions: pos, 800 g/ha
Procedure: as §1, §2

Setaria viridis [7] = assay: Postemergence herbicidal activity (Example 67); conditions: pos, 800 g/ha
Procedure: as §1, §2

Alopecurus myosuroides [8] = assay: Postemergence herbicidal activity (Example 67); conditions: pos, 800 g/ha
Procedure: as §1, §2

Chenopodium album [9] = assay: Postemergence herbicidal activity (Example 67); conditions: pos, 800 g/ha
Procedure: as §1, §2

Abutilon theophrasti [10] = assay: Postemergence herbicidal activity (Example 67); conditions: pos, 800 g/ha
Procedure: as §1, §2

Veronica persica [11] = assay: Postemergence herbicidal activity (Example 67); conditions: pos, 800 g/ha
Procedure: as §1, §2

Triticum aestivum [12] = assay: Postemergence herbicidal activity (Example 67); conditions: pos, 800 g/ha
Procedure: as §1, §2

Hordeum vulgare [13] = assay: Postemergence herbicidal activity (Example 67); conditions: pos, 800 g/ha
Procedure: as §1, §2

Helianthus annuus [14] = assay: Postemergence herbicidal activity (Example 67); conditions: pos, 800 g/ha
Procedure: as §1, §2

Alopecurus myosuroides [15] = assay: Preemergence herbicidal activity (Example 67); conditions: pre, 800 g/ha
Procedure: as §1, §2, §3

Galium aparine [16] = assay: Preemergence herbicidal activity (Example 67); conditions: pre, 800 g/ha
Procedure: as §1, §2, §3

Zea mays [17] = assay: Preemergence herbicidal activity (Example 67); conditions: pre, 800 g/ha
Procedure: as §1, §2, §3

Ipomoea hederacea [18] = assay: Preemergence herbicidal activity (Example 67); conditions: pre, 800 g/ha
Procedure: as §1, §2, §3

Amaranthus retroflexus [19] = assay: Preemergence herbicidal activity (Example 67); conditions: pre, 800 g/ha
Procedure: as §1, §2, §3

Chenopodium album [20] = assay: Preemergence herbicidal activity (Example 67); conditions: pre, 800 g/ha
Procedure: as §1, §2, §3

Abutilon theophrasti [21] = assay: Preemergence herbicidal activity (Example 67); conditions: pre, 800 g/ha
Procedure: as §1, §2, §3

Veronica persica [22] = assay: Preemergence herbicidal activity (Example 67); conditions: pre, 800 g/ha
Procedure: as §1, §2, §3

Helianthus annuus [23] = assay: Preemergence herbicidal activity (Example 67); conditions: pre, 800 g/ha
Procedure: as §1, §2, §3

Setaria viridis [24] = assay: Preemergence herbicidal activity (Example 67); conditions: pre, 800 g/ha
Procedure: as §1, §2, §3

## Cc1ccc(-c2nc(C(=O)NC(C)c3cccs3)ns2)cc1 (racemic) [Example 41]
Triticum aestivum [1]
  TRZ AW rating: 0
Hordeum vulgare [2]
  HOR VW rating: 0
Galium aparine [3]
  GAL AP rating: 3 (16-29%)
Zea mays [4]
  ZEA MX rating: 2 (6-15%)
Ipomoea hederacea [5]
  IPO HE rating: 3 (16-29%)
Amaranthus retroflexus [6]
  AMA RE rating: 3 (16-29%)
Setaria viridis [7]
  SET VI rating: 8 (91-99%)
Alopecurus myosuroides [8]
  ALO MY rating: 2 (6-15%)
Chenopodium album [9]
  CHE AL rating: 5 (45-64%)
Abutilon theophrasti [10]
  ABU TH rating: 1 (1-5%)
Veronica persica [11]
  VER PE rating: 0
Triticum aestivum [12]
  TRZ AW rating: 2 (6-15%)
Hordeum vulgare [13]
  HOR VW rating: 2 (6-15%)
Helianthus annuus [14]
  HEL AN rating: 5 (45-64%)
Alopecurus myosuroides [15]
  ALO MY rating: 0
Galium aparine [16]
  GAL AP rating: 0
Zea mays [17]
  ZEA MX rating: 4 (30-44%)
Ipomoea hederacea [18]
  IPO HE rating: 0
Amaranthus retroflexus [19]
  AMA RE rating: 0
Chenopodium album [20]
  CHE AL rating: 3 (16-29%)
Abutilon theophrasti [21]
  ABU TH rating: 0
Veronica persica [22]
  VER PE rating: 3 (16-29%)
Helianthus annuus [23]
  HEL AN rating: 0
Setaria viridis [24]
  SET VI rating: 0

## CC(NC(=O)c1nc(-c2cccc(F)c2)ns1)c1cccs1 (racemic) [Example 43]
Triticum aestivum [1]
  TRZ AW rating: 0
Hordeum vulgare [2]
  HOR VW rating: 0
Galium aparine [3]
  GAL AP rating: 2 (6-15%)
Zea mays [4]
  ZEA MX rating: 0
Ipomoea hederacea [5]
  IPO HE rating: 2 (6-15%)
Amaranthus retroflexus [6]
  AMA RE rating: 0
Setaria viridis [7]
  SET VI rating: 3 (16-29%)
Alopecurus myosuroides [8]
  ALO MY rating: 1 (1-5%)
Chenopodium album [9]
  CHE AL rating: 4 (30-44%)
Abutilon theophrasti [10]
  ABU TH rating: 1 (1-5%)
Veronica persica [11]
  VER PE rating: 2 (6-15%)
Triticum aestivum [12]
  TRZ AW rating: 2 (6-15%)
Hordeum vulgare [13]
  HOR VW rating: 2 (6-15%)
Helianthus annuus [14]
  HEL AN rating: 3 (16-29%)
Alopecurus myosuroides [15]
  ALO MY rating: 0
Galium aparine [16]
  GAL AP rating: 2 (6-15%)
Zea mays [17]
  ZEA MX rating: 0
Ipomoea hederacea [18]
  IPO HE rating: 2 (6-15%)
Amaranthus retroflexus [19]
  AMA RE rating: 0
Chenopodium album [20]
  CHE AL rating: 4 (30-44%)
Abutilon theophrasti [21]
  ABU TH rating: 0
Veronica persica [22]
  VER PE rating: 2 (6-15%)
Helianthus annuus [23]
  HEL AN rating: 0
Setaria viridis [24]
  SET VI rating: 0

## CC(NC(=O)c1nc(-c2cccc(Cl)n2)ns1)c1cccs1 (racemic) [Example 47]
Triticum aestivum [1]
  TRZ AW rating: 0
Hordeum vulgare [2]
  HOR VW rating: 0
Galium aparine [3]
  GAL AP rating: 4 (30-44%)
Zea mays [4]
  ZEA MX rating: 4 (30-44%)
Ipomoea hederacea [5]
  IPO HE rating: 4 (30-44%)
Amaranthus retroflexus [6]
  AMA RE rating: 1 (1-5%)
Setaria viridis [7]
  SET VI rating: 6 (65-79%)
Alopecurus myosuroides [8]
  ALO MY rating: 4 (30-44%)
Chenopodium album [9]
  CHE AL rating: 4 (30-44%)
Abutilon theophrasti [10]
  ABU TH rating: 4 (30-44%)
Veronica persica [11]
  VER PE rating: 3 (16-29%)
Triticum aestivum [12]
  TRZ AW rating: 1 (1-5%)
Hordeum vulgare [13]
  HOR VW rating: 3 (16-29%)
Helianthus annuus [14]
  HEL AN rating: 5 (45-64%)
Alopecurus myosuroides [15]
  ALO MY rating: 0
Galium aparine [16]
  GAL AP rating: 1 (1-5%)
Zea mays [17]
  ZEA MX rating: 0
Ipomoea hederacea [18]
  IPO HE rating: 1 (1-5%)
Amaranthus retroflexus [19]
  AMA RE rating: 0
Chenopodium album [20]
  CHE AL rating: 0
Abutilon theophrasti [21]
  ABU TH rating: 2 (6-15%)
Veronica persica [22]
  VER PE rating: 0
Helianthus annuus [23]
  HEL AN rating: 0
Setaria viridis [24]
  SET VI rating: 3 (16-29%)

## COc1ccc(-c2nc(C(=O)NC(C)c3cccs3)ns2)cc1 (racemic) [Example 51, (R/S)-5-(4-Methoxyphenyl)-[1,2,4]thiadiazole-3-carboxylic acid, [1-(2-thienyl)ethyl]amide]
Triticum aestivum [1]
  TRZ AW rating: 2 (6-15%)
Hordeum vulgare [2]
  HOR VW rating: 2 (6-15%)
Galium aparine [3]
  GAL AP rating: 6 (65-79%)
Zea mays [4]
  ZEA MX rating: 5 (45-64%)
Ipomoea hederacea [5]
  IPO HE rating: 8 (91-99%)
Amaranthus retroflexus [6]
  AMA RE rating: 4 (30-44%)
Setaria viridis [7]
  SET VI rating: 8 (91-99%)
Alopecurus myosuroides [8]
  ALO MY rating: 5 (45-64%)
Chenopodium album [9]
  CHE AL rating: 4 (30-44%)
Abutilon theophrasti [10]
  ABU TH rating: 6 (65-79%)
Veronica persica [11]
  VER PE rating: 8 (91-99%)
Triticum aestivum [12]
  TRZ AW rating: 3 (16-29%)
Hordeum vulgare [13]
  HOR VW rating: 5 (45-64%)
Helianthus annuus [14]
  HEL AN rating: 8 (91-99%)
Alopecurus myosuroides [15]
  ALO MY rating: 3 (16-29%)
Galium aparine [16]
  GAL AP rating: 0
Zea mays [17]
  ZEA MX rating: 0
Ipomoea hederacea [18]
  IPO HE rating: 0
Amaranthus retroflexus [19]
  AMA RE rating: 5 (45-64%)
Chenopodium album [20]
  CHE AL rating: 0
Abutilon theophrasti [21]
  ABU TH rating: 3 (16-29%)
Veronica persica [22]
  VER PE rating: 0
Helianthus annuus [23]
  HEL AN rating: 1 (1-5%)
Setaria viridis [24]
  SET VI rating: 0
